# Source: article PMC5218480 (PLoS ONE, 2017)
# System: MV-4-11 cells
# Experiment: Gene expression microarray analysis (Affymetrix PrimeView) and GSEA
# Format: cell-based, human
# Design: RFU PODN (11730768_x_at) / Fold change /veh PODN (11730768_x_at) / RFU LINC00158 (11744669_a_at) / Fold change /veh LINC00158 (11744669_a_at) / RFU DUSP10 (11751237_a_at) / Fold change /veh DUSP10 (11751237_a_at) / RFU ID3 (11757404_x_at) / Fold change /veh ID3 (11757404_x_at) / RFU PLEKHG5 (11737974_s_at) / Fold change /veh PLEKHG5 (11737974_s_at) / RFU LRRC4B (11730491_at) / Fold change /veh LRRC4B (11730491_at) / RFU GIMAP4 (11747438_a_at) / Fold change /veh GIMAP4 (11747438_a_at) / RFU KRT8 (11758183_x_at) / Fold change /veh KRT8 (11758183_x_at) / RFU CNN1 (11734310_a_at) / Fold change /veh CNN1 (11734310_a_at) / RFU VPS37D (11726825_at) / Fold change /veh VPS37D (11726825_at) / RFU C10orf10 (11716522_x_at) / Fold change /veh C10orf10 (11716522_x_at) / RFU KIR2DL2 /// KIR2DL4 /// KIR2DL5A /// KIR2DL5B /// KIR2DS1 /// KIR2DS2 /// KIR2DS3 /// KIR2DS4 /// KIR3DL3 /// KIR3DL3 /// KIR3DS1 (11738374_at) / Fold change /veh KIR2DL2 /// KIR2DL4 /// KIR2DL5A /// KIR2DL5B /// KIR2DS1 /// KIR2DS2 /// KIR2DS3 /// KIR2DS4 /// KIR3DL3 /// KIR3DL3 /// KIR3DS1 (11738374_at) / RFU C1QL1 (11718748_at) / Fold change /veh C1QL1 (11718748_at) / RFU TMPRSS4 (11747572_a_at) / Fold change /veh TMPRSS4 (11747572_a_at) / RFU HAMP (11756126_x_at) / Fold change /veh HAMP (11756126_x_at) / RFU RNFT2 (11725882_a_at) / Fold change /veh RNFT2 (11725882_a_at) / RFU NR4A2 (11747474_a_at) / Fold change /veh NR4A2 (11747474_a_at) / RFU ABCC12 (11746883_a_at) / Fold change /veh ABCC12 (11746883_a_at) / RFU TMEM136 (11760407_x_at) / Fold change /veh TMEM136 (11760407_x_at) / RFU CLDN22 /// WWC2 (11732394_at) / Fold change /veh CLDN22 /// WWC2 (11732394_at) / RFU HLA-DPB1 (11760878_x_at) / Fold change /veh HLA-DPB1 (11760878_x_at) / RFU SPINT1 (11716480_a_at) / Fold change /veh SPINT1 (11716480_a_at) / RFU GAP43 (11754022_s_at) / Fold change /veh GAP43 (11754022_s_at) / RFU A4GNT (11735810_at) / Fold change /veh A4GNT (11735810_at) / RFU PRB3 (11715151_x_at) / Fold change /veh PRB3 (11715151_x_at) / RFU TUBB4B (11761932_at) / Fold change /veh TUBB4B (11761932_at) / RFU CAPN14 (11732068_a_at) / Fold change /veh CAPN14 (11732068_a_at) / RFU TMCC2 (11721928_a_at) / Fold change /veh TMCC2 (11721928_a_at) / RFU IRGQ (11745062_a_at) / Fold change /veh IRGQ (11745062_a_at) / RFU FAM174B (11720279_a_at) / Fold change /veh FAM174B (11720279_a_at) / RFU TMPRSS4 (11748680_a_at) / Fold change /veh TMPRSS4 (11748680_a_at) / RFU FAM212B (11763350_a_at) / Fold change /veh FAM212B (11763350_a_at) / RFU PLEKHG5 (11743358_a_at) / Fold change /veh PLEKHG5 (11743358_a_at) / RFU ZSCAN30 (11745921_a_at) / Fold change /veh ZSCAN30 (11745921_a_at) / RFU CMKLR1 (11741424_a_at) / Fold change /veh CMKLR1 (11741424_a_at) / RFU LOC101060620 /// MAPK8IP1 (11723275_at) / Fold change /veh LOC101060620 /// MAPK8IP1 (11723275_at) / RFU SPTSSB (11747773_x_at) / Fold change /veh SPTSSB (11747773_x_at) / RFU PRSS12 (11739890_at) / Fold change /veh PRSS12 (11739890_at) / RFU BIN1 (11741810_x_at) / Fold change /veh BIN1 (11741810_x_at) / RFU WNT11 (11732464_a_at) / Fold change /veh WNT11 (11732464_a_at) / RFU C10orf10 (11716521_a_at) / Fold change /veh C10orf10 (11716521_a_at) / RFU C5orf56 (11738089_at) / Fold change /veh C5orf56 (11738089_at) / RFU CYB561 (11721691_x_at) / Fold change /veh CYB561 (11721691_x_at) / RFU ANKRD19P (11752326_a_at) / Fold change /veh ANKRD19P (11752326_a_at) / RFU OR2T12 /// OR2T33 /// OR2T8 (11738714_s_at) / Fold change /veh OR2T12 /// OR2T33 /// OR2T8 (11738714_s_at) / RFU VCAN (11748164_a_at) / Fold change /veh VCAN (11748164_a_at) / RFU JSRP1 (11732532_at) / Fold change /veh JSRP1 (11732532_at) / RFU KRTAP10-11 (11738290_x_at) / Fold change /veh KRTAP10-11 (11738290_x_at) / RFU MYO3A (11730013_a_at) / Fold change /veh MYO3A (11730013_a_at) / RFU EBF3 (11725865_a_at) / Fold change /veh EBF3 (11725865_a_at) / RFU CAMK2N1 (11719241_x_at) / Fold change /veh CAMK2N1 (11719241_x_at) / RFU C5orf56 (11738088_a_at) / Fold change /veh C5orf56 (11738088_a_at) / RFU OLFML3 (11715873_a_at) / Fold change /veh OLFML3 (11715873_a_at) / RFU LOC100653217 /// NTM (11731650_a_at) / Fold change /veh LOC100653217 /// NTM (11731650_a_at) / RFU MAPK11 (11762145_a_at) / Fold change /veh MAPK11 (11762145_a_at) / RFU FIZ1 (11724087_x_at) / Fold change /veh FIZ1 (11724087_x_at) / RFU OASL (11726364_x_at) / Fold change /veh OASL (11726364_x_at) / RFU SOX15 (11748057_x_at) / Fold change /veh SOX15 (11748057_x_at) / RFU CD79A (11719716_a_at) / Fold change /veh CD79A (11719716_a_at) / RFU HIST1H1D (11736915_at) / Fold change /veh HIST1H1D (11736915_at) / RFU CASKIN2 (11723855_a_at) / Fold change /veh CASKIN2 (11723855_a_at) / RFU LOC730098 (11760151_x_at) / Fold change /veh LOC730098 (11760151_x_at) / RFU OR4N2 (11742367_at) / Fold change /veh OR4N2 (11742367_at) / RFU PRRT2 (11749266_a_at) / Fold change /veh PRRT2 (11749266_a_at) / RFU SNX32 (11753110_a_at) / Fold change /veh SNX32 (11753110_a_at) / RFU CDHR5 (11726645_a_at) / Fold change /veh CDHR5 (11726645_a_at) / RFU RCAN1 (11760418_a_at) / Fold change /veh RCAN1 (11760418_a_at) / RFU FAM167A (11723789_a_at) / Fold change /veh FAM167A (11723789_a_at) / RFU FAM26E (11764081_at) / Fold change /veh FAM26E (11764081_at) / RFU ISYNA1 (11749810_s_at) / Fold change /veh ISYNA1 (11749810_s_at) / RFU ACY1 (11761880_at) / Fold change /veh ACY1 (11761880_at) / RFU 11764098_at / Fold change /veh 11764098_at / RFU SAMD14 (11745864_x_at) / Fold change /veh SAMD14 (11745864_x_at) / RFU NPB (11741838_a_at) / Fold change /veh NPB (11741838_a_at) / RFU TMPRSS6 (11731388_a_at) / Fold change /veh TMPRSS6 (11731388_a_at) / RFU KRTAP10-2 (11738614_at) / Fold change /veh KRTAP10-2 (11738614_at) / RFU ARHGAP8 /// PRR5-ARHGAP8 (11727945_x_at) / Fold change /veh ARHGAP8 /// PRR5-ARHGAP8 (11727945_x_at) / RFU KRTAP5-7 /// NADSYN1 (11734609_at) / Fold change /veh KRTAP5-7 /// NADSYN1 (11734609_at) / RFU RASL12 (11751679_a_at) / Fold change /veh RASL12 (11751679_a_at) / RFU CDKN2B (11736163_a_at) / Fold change /veh CDKN2B (11736163_a_at) / RFU PRF1 (11729649_at) / Fold change /veh PRF1 (11729649_at) / RFU, ZNF638 /// ZNF638-IT1 / Fold change vs veh, ZNF638 /// ZNF638-IT1 / RFU, PANK3 / Fold change vs veh, PANK3 / RFU, SH3YL1 / Fold change vs veh, SH3YL1 / RFU, ZEB2 / Fold change vs veh, ZEB2 / RFU, NRIP1 / Fold change vs veh, NRIP1 / RFU, PTTG1IP / Fold change vs veh, PTTG1IP / RFU, CAPN2 / Fold change vs veh, CAPN2 / RFU, MED14 / Fold change vs veh, MED14 / RFU, SNORA58 / Fold change vs veh, SNORA58 / RFU, C1orf63 / Fold change vs veh, C1orf63 / RFU, LRRFIP1 / Fold change vs veh, LRRFIP1 / RFU, NDUFAF7 / Fold change vs veh, NDUFAF7 / RFU, SLC12A2 / Fold change vs veh, SLC12A2 / RFU, IBTK / Fold change vs veh, IBTK / RFU, ESF1 / Fold change vs veh, ESF1 / Fold change vs veh, TMEM50B / RFU, TAOK1 / Fold change vs veh, TAOK1 / RFU, ACBD3 / Fold change vs veh, ACBD3 / RFU, TMA16 / Fold change vs veh, TMA16 / RFU, RWDD3 / Fold change vs veh, RWDD3 / RFU, BCAT1 / Fold change vs veh, BCAT1 / RFU, EDEM3 / Fold change vs veh, EDEM3 / RFU, TMEM33 / Fold change vs veh, TMEM33 / RFU, WDR75 / Fold change vs veh, WDR75 / RFU, AHCTF1 / Fold change vs veh, AHCTF1 / RFU, TFRC / Fold change vs veh, TFRC / RFU, ZDHHC17 / Fold change vs veh, ZDHHC17 / RFU, NOM1 / Fold change vs veh, NOM1 / RFU, ARL8B / Fold change vs veh, ARL8B / RFU, ZBTB11 / Fold change vs veh, ZBTB11 / RFU, TAMM41 / Fold change vs veh, TAMM41 / RFU, KIAA1704 /// LOC100996395 / Fold change vs veh, KIAA1704 /// LOC100996395 / RFU, ING1 / Fold change vs veh, ING1 / RFU, TRMT61B / Fold change vs veh, TRMT61B / RFU, FUBP3 / Fold change vs veh, FUBP3 / RFU, TP53 / Fold change vs veh, TP53 / RFU, TNKS2 / Fold change vs veh, TNKS2 / RFU, ZFP14 / Fold change vs veh, ZFP14 / RFU, ACTR2 / Fold change vs veh, ACTR2 / RFU, PPP3R1 / Fold change vs veh, PPP3R1 / RFU, PIK3R1 / Fold change vs veh, PIK3R1 / RFU, HNRNPA1 / Fold change vs veh, HNRNPA1 / RFU, RNF170 / Fold change vs veh, RNF170 / RFU, ZNF28 / Fold change vs veh, ZNF28 / RFU, RNGTT / Fold change vs veh, RNGTT / RFU, OGT / Fold change vs veh, OGT / RFU, BRD1 / Fold change vs veh, BRD1 / RFU, MARS / Fold change vs veh, MARS / RFU, ZNF655 / Fold change vs veh, ZNF655 / RFU, FAHD1 / Fold change vs veh, FAHD1 / RFU, BDP1 / Fold change vs veh, BDP1 / RFU, LRRCC1 / Fold change vs veh, LRRCC1 / RFU, ARID1A / Fold change vs veh, ARID1A / RFU, ZNF146 / Fold change vs veh, ZNF146 / RFU, ZNF330 / Fold change vs veh, ZNF330 / RFU, GPN3 / Fold change vs veh, GPN3 / RFU, C9orf123 / Fold change vs veh, C9orf123 / RFU, N4BP2L2 / Fold change vs veh, N4BP2L2 / RFU, ARFIP1 / Fold change vs veh, ARFIP1 / RFU, FAM179B / Fold change vs veh, FAM179B / RFU, BCL10 / Fold change vs veh, BCL10 / RFU, UHRF1BP1L / Fold change vs veh, UHRF1BP1L / RFU, BET1 / Fold change vs veh, BET1 / RFU, CNOT2 / Fold change vs veh, CNOT2 / RFU, ZNF268 / Fold change vs veh, ZNF268 / Fold change vs veh, ZNF507 / RFU, DGCR2 / Fold change vs veh, DGCR2 / RFU, WDSUB1 / Fold change vs veh, WDSUB1 / Fold change vs veh, HSP90B1 /// MIR3652 / RFU, ADSS / Fold change vs veh, ADSS / RFU, GK / Fold change vs veh, GK / RFU, ZNF148 / Fold change vs veh, ZNF148 / RFU, TAF9 / Fold change vs veh, TAF9 / RFU, SLC1A5 / Fold change vs veh, SLC1A5 / RFU, SLMO2 / Fold change vs veh, SLMO2 / RFU, ABCC4 / Fold change vs veh, ABCC4 / RFU, LOC101060439 /// RAP1B / Fold change vs veh, LOC101060439 /// RAP1B / RFU, RFX7 / Fold change vs veh, RFX7 / RFU, GTPBP10 / Fold change vs veh, GTPBP10 / RFU, CNEP1R1 / Fold change vs veh, CNEP1R1 / RFU, BIVM-ERCC5 /// ERCC5 / Fold change vs veh, BIVM-ERCC5 /// ERCC5 / RFU, ILF3 / Fold change vs veh, ILF3 / RFU 11762660_at / Fold change /veh 11762660_at / RFU VCAN (11757783_s_at) / Fold change /veh VCAN (11757783_s_at) / RFU DDX43 (11728927_at) / Fold change /veh DDX43 (11728927_at) / RFU KRT8 (11758188_x_at) / Fold change /veh KRT8 (11758188_x_at) / RFU NKD1 (11759106_at) / Fold change /veh NKD1 (11759106_at) / RFU SRD5A1 (11742802_a_at) / Fold change /veh SRD5A1 (11742802_a_at) / RFU TPSAB1 /// TPSB2 (11721975_s_at) / Fold change /veh TPSAB1 /// TPSB2 (11721975_s_at) / RFU GSTM3 (11746129_a_at) / Fold change /veh GSTM3 (11746129_a_at) / RFU IL23R (11737362_x_at) / Fold change /veh IL23R (11737362_x_at) / RFU TMEM51 (11727254_a_at) / Fold change /veh TMEM51 (11727254_a_at) / RFU PIWIL2 (11732686_x_at) / Fold change /veh PIWIL2 (11732686_x_at) / RFU ORM1 (11744905_x_at) / Fold change /veh ORM1 (11744905_x_at) / RFU CCDC152 (11743942_at) / Fold change /veh CCDC152 (11743942_at) / RFU ECM1 (11717891_a_at) / Fold change /veh ECM1 (11717891_a_at) / RFU IL23R (11748794_a_at) / Fold change /veh IL23R (11748794_a_at) / RFU TNFAIP8L3 (11732012_x_at) / Fold change /veh TNFAIP8L3 (11732012_x_at) / RFU MBOAT4 (11741988_at) / Fold change /veh MBOAT4 (11741988_at) / RFU 11764193_at / Fold change /veh 11764193_at / RFU TMEM53 (11763286_at) / Fold change /veh TMEM53 (11763286_at) / RFU MAGEB2 (11727129_at) / Fold change /veh MAGEB2 (11727129_at) / RFU TMEM200A (11744735_a_at) / Fold change /veh TMEM200A (11744735_a_at) / RFU CCDC152 (11751479_a_at) / Fold change /veh CCDC152 (11751479_a_at) / RFU FAM211A (11726209_a_at) / Fold change /veh FAM211A (11726209_a_at) / RFU RGS16 (11746705_a_at) / Fold change /veh RGS16 (11746705_a_at) / RFU VCAN (11755009_s_at) / Fold change /veh VCAN (11755009_s_at) / RFU RHOB (11743442_s_at) / Fold change /veh RHOB (11743442_s_at) / RFU RGS16 (11720943_a_at) / Fold change /veh RGS16 (11720943_a_at) / RFU RGS16 (11720944_at) / Fold change /veh RGS16 (11720944_at) / RFU, VPS4B / Fold change vs veh, VPS4B / RFU, CREB1 / Fold change vs veh, CREB1 / RFU, DNAJC13 / Fold change vs veh, DNAJC13 / RFU, GNAQ / Fold change vs veh, GNAQ / RFU, CDK5R1 / Fold change vs veh, CDK5R1 / RFU, ZRANB3 / Fold change vs veh, ZRANB3 / RFU, CUL4A / Fold change vs veh, CUL4A / RFU, CCNY / Fold change vs veh, CCNY / RFU, UFL1 / Fold change vs veh, UFL1 / RFU, COG3 / Fold change vs veh, COG3 / RFU, DIAPH2 / Fold change vs veh, DIAPH2 / RFU, SKA2 / Fold change vs veh, SKA2 / RFU, AFF3 / Fold change vs veh, AFF3 / RFU, LMF1 / Fold change vs veh, LMF1 / RFU, IPO11 / Fold change vs veh, IPO11 / RFU, DFFB / Fold change vs veh, DFFB / RFU, FOXP1 / Fold change vs veh, FOXP1 / RFU, CARD8 / Fold change vs veh, CARD8 / RFU, STRN3 / Fold change vs veh, STRN3 / RFU, ADK / Fold change vs veh, ADK / RFU, RASSF2 / Fold change vs veh, RASSF2 / RFU, WIPF1 / Fold change vs veh, WIPF1 / RFU, LARP1B / Fold change vs veh, LARP1B / RFU, RASA1 / Fold change vs veh, RASA1 / RFU, RB1 / Fold change vs veh, RB1 / RFU, PPFIA1 / Fold change vs veh, PPFIA1 / RFU, MAT2A / Fold change vs veh, MAT2A / RFU, CCT5 / Fold change vs veh, CCT5 / RFU, WDR92 / Fold change vs veh, WDR92 / RFU, CUX1 / Fold change vs veh, CUX1 / RFU, TTC7A / Fold change vs veh, TTC7A / RFU, TMEM135 / Fold change vs veh, TMEM135 / RFU, DEPTOR / Fold change vs veh, DEPTOR / RFU, CPM / Fold change vs veh, CPM / RFU, DNAJB6 / Fold change vs veh, DNAJB6 / RFU, CACNA2D3 / Fold change vs veh, CACNA2D3 / RFU, DTX4 / Fold change vs veh, DTX4 / RFU, TFCP2 / Fold change vs veh, TFCP2 / RFU, GMCL1 /// GMCL1P1 / Fold change vs veh, GMCL1 /// GMCL1P1 / RFU, AEBP2 / Fold change vs veh, AEBP2 / RFU, SNHG1 /// SNORD22 /// SNORD25 /// SNORD26 /// SNORD27 /// SNORD28 /// SNORD29 /// SNORD31 / Fold change vs veh, SNHG1 /// SNORD22 /// SNORD25 /// SNORD26 /// SNORD27 /// SNORD28 /// SNORD29 /// SNORD31 / Fold change (Aza/veh), C12orf56 (ProbeSet 11735607_a_at) / Fold change (ACY-1035/veh), C12orf56 (ProbeSet 11735607_a_at) / Fold change (Aza/veh), FGFR1OP (ProbeSet 11751329_s_at) / Fold change (ACY-1035/veh), FGFR1OP (ProbeSet 11751329_s_at) / Fold change (Aza/veh), VPS36 (ProbeSet 11739960_a_at) / Fold change (ACY-1035/veh), VPS36 (ProbeSet 11739960_a_at) / RFU SYPL1 (11715823_x_at) / Fold change /veh SYPL1 (11715823_x_at) / RFU IGFBP7 (11715501_s_at) / Fold change /veh IGFBP7 (11715501_s_at) / RFU REEP3 (11722064_at) / Fold change /veh REEP3 (11722064_at) / RFU IGLL1 (11728026_x_at) / Fold change /veh IGLL1 (11728026_x_at): dose or concentration left out as unconfirmed
# Conditions: ProbeSet 11743929_at; LIST B
compound,measurement,value
Nc1ccc(-c2cccs2)cc1NC(=O)c1ccc2c(c1)cc(C1CC1)n2CCN1CCOCC1 [ACY-1035],"RFU, UHRF1BP1L",242.75 RFU
